The values below are quoted from earlier work in patent publication US20110028639A1, “ROOM TEMPERATURE VULCANIZABLE POLYMERS” (HONEYWELL INTERNATIONAL, INC., priority 2007, published 2011).

For this data set, the system named is males rats.

Structures are written as SMILES.

For `CC(C)=NO` [acetone oxime], the tumors in rats entry is given as “cause tumors”.
